How the values were obtained:
[1] = target: BTK (Homo sapiens, UniProt Q06187); experiment: Degradation of BTK protein in Namalwa cells (Western blot; DC50, Dmax); conditions: for DC50: BTK degradation, cell line not given
[2] = tested on: JeKo-1 cells; experiment: Antiproliferative effect, MTS cell viability assay, JeKo-1 cells; format: cell-based; conditions: Homo sapiens; JeKo-1 mantle cell lymphoma cells; read-out: IC50 (anti-proliferation) JeKO-1 cells
Outline: (§1)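 Readout was MTS-derived formazan absorbance (490 nm) reflecting metabolically active cells. Treatment lasted 72 h over a 0–10 μM range (0.001, 0.01, 0.1, 1, 10 μM) in JeKo-1 and Mino B-cell malignancy cells.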

[3] = tested on: Mino cells; experiment: Antiproliferative effect, MTS cell viability assay, Mino cells; format: cell-based; conditions: Homo sapiens, MINO, Mino mantle cell lymphoma cells; read-out: IC50 (anti-proliferation) Mino cells
Outline: as §1

Sequence of BTK (Q06187 whole entry): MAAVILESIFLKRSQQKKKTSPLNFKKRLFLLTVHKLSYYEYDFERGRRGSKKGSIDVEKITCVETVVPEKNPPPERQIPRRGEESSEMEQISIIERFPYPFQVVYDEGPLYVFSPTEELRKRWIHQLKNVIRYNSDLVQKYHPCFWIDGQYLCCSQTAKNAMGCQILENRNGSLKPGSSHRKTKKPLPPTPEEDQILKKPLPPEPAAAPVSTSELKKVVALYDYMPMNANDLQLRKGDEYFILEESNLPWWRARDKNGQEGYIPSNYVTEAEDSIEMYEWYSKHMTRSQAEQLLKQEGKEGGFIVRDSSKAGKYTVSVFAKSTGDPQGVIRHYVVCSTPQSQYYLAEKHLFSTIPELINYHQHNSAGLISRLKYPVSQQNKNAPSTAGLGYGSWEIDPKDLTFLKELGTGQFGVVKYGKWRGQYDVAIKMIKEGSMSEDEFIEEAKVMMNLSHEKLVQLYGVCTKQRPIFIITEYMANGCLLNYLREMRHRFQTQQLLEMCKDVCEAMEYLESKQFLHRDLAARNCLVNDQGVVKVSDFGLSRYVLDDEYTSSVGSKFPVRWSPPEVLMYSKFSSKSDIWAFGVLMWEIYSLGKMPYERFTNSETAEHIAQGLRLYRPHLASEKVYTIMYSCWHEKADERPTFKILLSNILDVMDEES

| SMILES | Dmax [1] | DC50 [1] | IC50 [2] | IC50 [3] |
| --- | --- | --- | --- | --- |
| NC(=O)c1c(-c2ccc(Oc3ccccc3)cc2)nn2c1NCCC2C1CCN(C2CCN(C(=O)N3CCC(C4CCN(c5ccc6c(c5)CN(C5CCC(=O)NC5=O)C6=O)CC4)CC3)CC2)CC1 (stereo not shown) [Compound 344, 7-(1′-(1′-(2-(2,6-dioxopiperidin-3-yl)-1-oxoisoindolin-5-yl)-[4,4′-bipiperidine]-1-carbonyl)-[1,4′-bipiperidin]-4-yl)-2-(4-phenoxyphenyl)-4,5,6,7-tetrahydropyrazolo[1,5-a]pyrimidine-3-carboxamide] | > 90% | < 10 nM | < 1 µM | 1000 to 10000 nM |
| NC(=O)c1c(-c2ccc(Oc3ccccc3)cc2)nn2c1NCCC2C1CCN(C2CCN(C(=O)N3CCN(C4CCN(c5ccc6c(c5)C(=O)N(C5CCC(=O)NC5=O)C6=O)CC4)CC3)CC2)CC1 (stereo not shown) [Compound 345, 7-(1′-(4-(1-(2-(2,6-dioxopiperidin-3-yl)-1,3-dioxoisoindolin-5-yl)piperidin-4-yl)piperazine-1-carbonyl)-[1,4′-bipiperidin]-4-yl)-2-(4-phenoxyphenyl)-4,5,6,7-tetrahydropyrazolo[1,5-a]pyrimidine-3-carboxamide] | > 90% | < 10 nM | 1 to 10 µM | 1000 to 10000 nM |
| NC(=O)c1c(-c2ccc(Oc3ccccc3)cc2)nn2c1NCCC2C1CCN(C2CCN(C(=O)N3CCN(C4CCN(c5ccc6c(c5)CN(C5CCC(=O)NC5=O)C6=O)CC4)CC3)CC2)CC1 (stereo not shown) [Compound 346, 7-(1′-(4-(1-(2-(2,6-dioxopiperidin-3-yl)-1-oxoisoindolin-5-yl)piperidin-4-yl)piperazine-1-carbonyl)-[1,4′-bipiperidin]-4-yl)-2-(4-phenoxyphenyl)-4,5,6,7-tetrahydropyrazolo[1,5-a]pyrimidine-3-carboxamide] | > 90% | < 10 nM | 1 to 10 µM | < 1000 nM |
| NC(=O)c1c(-c2ccc(Oc3ccccc3)cc2)nn2c1NCCC2C1CCN(C2CCN(C(=O)N3CCC(N4CCC(c5ccc6c(c5)CN(C5CCC(=O)NC5=O)C6=O)CC4)CC3)CC2)CC1 (stereo not shown) [Compound 348, 7-(1′-(4-(2-(2,6-dioxopiperidin-3-yl)-1-oxoisoindolin-5-yl)-[1,4′-bipiperidine]-1′-carbonyl)-[1,4′-bipiperidin]-4-yl)-2-(4-phenoxyphenyl)-4,5,6,7-tetrahydropyrazolo[1,5-a]pyrimidine-3-carboxamide] | > 90% | < 10 nM | < 1 µM | < 1000 nM |
| NC(=O)c1c(-c2ccc(Oc3ccccc3)cc2)nn2c1NCCC2C1CCN(C2CCN(C(=O)N3CCC(CN4CCN(c5ccc6c(c5)C(=O)N(C5CCC(=O)NC5=O)C6=O)CC4)CC3)CC2)CC1 (stereo not shown) [Compound 349, 7-(1′-(4-((4-(2-(2,6-dioxopiperidin-3-yl)-1,3-dioxoisoindolin-5-yl)piperazin-1-yl)methyl)piperidine-1-carbonyl)-[1,4′-bipiperidin]-4-yl)-2-(4-phenoxyphenyl)-4,5,6,7-tetrahydropyrazolo[1,5-a]pyrimidine-3-carboxamide] | > 90% | 10 to 50 nM | 1 to 10 µM | 1000 to 10000 nM |
| NC(=O)c1c(-c2ccc(Oc3ccccc3)cc2)nn2c1NCCC2C1CCN(C2CCN(C(=O)N3CCC(CN4CCN(c5ccc6c(c5)CN(C5CCC(=O)NC5=O)C6=O)CC4)CC3)CC2)CC1 (stereo not shown) [Compound 350, 7-(1′-(4-((4-(2-(2,6-dioxopiperidin-3-yl)-1-oxoisoindolin-5-yl)piperazin-1-yl)methyl)piperidine-1-carbonyl)-[1,4′-bipiperidin]-4-yl)-2-(4-phenoxyphenyl)-4,5,6,7-tetrahydropyrazolo[1,5-a]pyrimidine-3-carboxamide] | > 90% | < 10 nM | 1 to 10 µM | < 1000 nM |
| NC(=O)c1c(-c2ccc(Oc3ccccc3)cc2)nn2c1NCCC2C1CCN(C2CCN(C(=O)N3CCN(CC4CCN(c5ccc6c(c5)C(=O)N(C5CCC(=O)NC5=O)C6=O)CC4)CC3)CC2)CC1 (stereo not shown) [Compound 351, 7-(1′-(4-((1-(2-(2,6-dioxopiperidin-3-yl)-1,3-dioxoisoindolin-5-yl)piperidin-4-yl)methyl)piperazine-1-carbonyl)-[1,4′-bipiperidin]-4-yl)-2-(4-phenoxyphenyl)-4,5,6,7-tetrahydropyrazolo[1,5-a]pyrimidine-3-carboxamide] | > 90% | 10 to 50 nM | 1 to 10 µM | < 1000 nM |
| NC(=O)c1c(-c2ccc(Oc3ccccc3)cc2)nn2c1NCCC2C1CCN(C2CCN(C(=O)N3CCN(CC4CCN(c5ccc6c(c5)CN(C5CCC(=O)NC5=O)C6=O)CC4)CC3)CC2)CC1 (stereo not shown) [Compound 352, 7-(1′-(4-((1-(2-(2,6-dioxopiperidin-3-yl)-1-oxoisoindolin-5-yl)piperidin-4-yl)methyl)piperazine-1-carbonyl)-[1,4′-bipiperidin]-4-yl)-2-(4-phenoxyphenyl)-4,5,6,7-tetrahydropyrazolo[1,5-a]pyrimidine-3-carboxamide] | > 90% | < 10 nM | 1 to 10 µM | < 1000 nM |
| NC(=O)c1c(-c2ccc(Oc3ccccc3)cc2)nn2c1NCCC2C1CCN(C2CCN(C(=O)N3CCC(CC4CCN(c5ccc6c(c5)C(=O)N(C5CCC(=O)NC5=O)C6=O)CC4)CC3)CC2)CC1 (stereo not shown) [Compound 353, 7-(1′-(4-((1-(2-(2,6-dioxopiperidin-3-yl)-1,3-dioxoisoindolin-5-yl)piperidin-4-yl)methyl)piperidine-1-carbonyl)-[1,4′-bipiperidin]-4-yl)-2-(4-phenoxyphenyl)-4,5,6,7-tetrahydropyrazolo[1,5-a]pyrimidine-3-carboxamide] | > 90% | 10 to 50 nM | 1 to 10 µM | < 1000 nM |
| NC(=O)c1c(-c2ccc(Oc3ccccc3)cc2)nn2c1NCCC2C1CCN(C2CCN(C(=O)N3CCC(CC4CCN(c5ccc6c(c5)CN(C5CCC(=O)NC5=O)C6=O)CC4)CC3)CC2)CC1 (stereo not shown) [Compound 354, 7-(1′-(4-((1-(2-(2,6-dioxopiperidin-3-yl)-1-oxoisoindolin-5-yl)piperidin-4-yl)methyl)piperidine-1-carbonyl)-[1,4′-bipiperidin]-4-yl)-2-(4-phenoxyphenyl)-4,5,6,7-tetrahydropyrazolo[1,5-a]pyrimidine-3-carboxamide] | > 90% | 10 to 50 nM | 1 to 10 µM | 1000 to 10000 nM |
| NC(=O)c1c(-c2ccc(Oc3ccccc3)cc2)nn2c1NCCC2C1CCN(C2CCN(C(=O)N3CCC(CN4CCC(c5ccc6c(c5)C(=O)N(C5CCC(=O)NC5=O)C6=O)CC4)CC3)CC2)CC1 (stereo not shown) [Compound 355, 7-(1′-(4-((4-(2-(2,6-dioxopiperidin-3-yl)-1,3-dioxoisoindolin-5-yl)piperidin-1-yl)methyl)piperidine-1-carbonyl)-[1,4′-bipiperidin]-4-yl)-2-(4-phenoxyphenyl)-4,5,6,7-tetrahydropyrazolo[1,5-a]pyrimidine-3-carboxamide] | > 90% | < 10 nM | 1 to 10 µM | 1000 to 10000 nM |
| NC(=O)c1c(-c2ccc(Oc3ccccc3)cc2)nn2c1NCCC2C1CCN(C2CCN(C(=O)N3CCC(CN4CCC(c5ccc6c(c5)CN(C5CCC(=O)NC5=O)C6=O)CC4)CC3)CC2)CC1 (stereo not shown) [Compound 356, 7-(1′-(4-((4-(2-(2,6-dioxopiperidin-3-yl)-1-oxoisoindolin-5-yl)piperidin-1-yl)methyl)piperidine-1-carbonyl)-[1,4′-bipiperidin]-4-yl)-2-(4-phenoxyphenyl)-4,5,6,7-tetrahydropyrazolo[1,5-a]pyrimidine-3-carboxamide] | > 90% | < 10 nM | 1 to 10 µM | < 1000 nM |
| NC(=O)c1c(-c2ccc(Oc3ccccc3)cc2)nn2c1NCCC2C1CCN(CC2CCN(C(=O)N3CCN(c4ccc5c(c4)C(=O)N(C4CCC(=O)NC4=O)C5=O)CC3)CC2)CC1 (stereo not shown) [Compound 357, 7-(1-((1-(4-(2-(2,6-dioxopiperidin-3-yl)-1,3-dioxoisoindolin-5-yl)piperazine-1-carbonyl)piperidin-4-yl)methyl)piperidin-4-yl)-2-(4-phenoxyphenyl)-4,5,6,7-tetrahydropyrazolo[1,5-a]pyrimidine-3-carboxamide] | > 50% | > 50 nM | > 10 µM | > 10000 nM |
| NC(=O)c1c(-c2ccc(Oc3ccccc3)cc2)nn2c1NCCC2C1CCN(CC2CCN(C(=O)N3CCN(c4ccc5c(c4)CN(C4CCC(=O)NC4=O)C5=O)CC3)CC2)CC1 (stereo not shown) [Compound 358, 7-(1-((1-(4-(2-(2,6-dioxopiperidin-3-yl)-1-oxoisoindolin-5-yl)piperazine-1-carbonyl)piperidin-4-yl)methyl)piperidin-4-yl)-2-(4-phenoxyphenyl)-4,5,6,7-tetrahydropyrazolo[1,5-a]pyrimidine-3-carboxamide] | > 50% | > 50 nM | > 10 µM | > 10000 nM |
| NC(=O)c1c(-c2ccc(Oc3ccccc3)cc2)nn2c1NCCC2C1CCN(CC2CCN(C(=O)N3CCN(Cc4ccc5c(c4)C(=O)N(C4CCC(=O)NC4=O)C5=O)CC3)CC2)CC1 (stereo not shown) [Compound 359, 7-(1-((1-(4-((2-(2,6-dioxopiperidin-3-yl)-1,3-dioxoisoindolin-5-yl)methyl)piperazine-1-carbonyl)piperidin-4-yl)methyl)piperidin-4-yl)-2-(4-phenoxyphenyl)-4,5,6,7-tetrahydropyrazolo[1,5-a]pyrimidine-3-carboxamide] | > 50% | > 50 nM | > 10 µM | > 10000 nM |
| NC(=O)c1c(-c2ccc(Oc3ccccc3)cc2)nn2c1NCCC2C1CCN(CC2CCN(C(=O)N3CCN(Cc4ccc5c(c4)CN(C4CCC(=O)NC4=O)C5=O)CC3)CC2)CC1 (stereo not shown) [Compound 360, 7-(1-((1-(4-((2-(2,6-dioxopiperidin-3-yl)-1-oxoisoindolin-5-yl)methyl)piperazine-1-carbonyl)piperidin-4-yl)methyl)piperidin-4-yl)-2-(4-phenoxyphenyl)-4,5,6,7-tetrahydropyrazolo[1,5-a]pyrimidine-3-carboxamide] | > 75% | > 50 nM | > 10 µM | > 10000 nM |

— US12139492B2 (Endotarget Inc., priority 2021, dated 2024)
